The assay has as its target T1, Human Neuropeptide Y2 Receptor (Homo sapiens, UniProt P49146).
T1 construct: purchased CHEMICON HTS066M
T1 sequence (P49146 1-381): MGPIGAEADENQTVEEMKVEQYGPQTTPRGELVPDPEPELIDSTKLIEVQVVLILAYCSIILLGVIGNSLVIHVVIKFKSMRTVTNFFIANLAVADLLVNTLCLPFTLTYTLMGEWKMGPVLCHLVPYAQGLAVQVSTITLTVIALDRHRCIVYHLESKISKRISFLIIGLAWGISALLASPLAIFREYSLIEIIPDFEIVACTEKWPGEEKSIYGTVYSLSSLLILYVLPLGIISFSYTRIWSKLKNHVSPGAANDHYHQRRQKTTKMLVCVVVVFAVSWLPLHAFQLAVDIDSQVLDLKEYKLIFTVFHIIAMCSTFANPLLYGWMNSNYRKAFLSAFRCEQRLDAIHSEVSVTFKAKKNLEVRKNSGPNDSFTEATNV
The assay can be described thus: Radioligand binding competition assay (RLB). Conditions: Table 3; human 125I-PYY (1-36) 0.02 nM, Y2 receptor membranes; read-out: Ki. As to the method:
The filtration RLB assay was carried out in 96-well plates in a final volume of 100 μl per well. Freeze-dried test peptides were dissolved in 100% dimethyl sulfoxide (DMSO) to stock solutions of 1 mM and serial dilutions were performed in assay buffer (50 mM HEPES, 5 mM MgCl2, 1 mM CaCl2), pH 7.4) containing 0.2% ovalbumin. […] Next, 80 μL membranes (HTS066M, ChemiSCREEN™ Human Neuropeptide Y2 Receptor Membrane Preparation, CHEMICON) were added to each well to give a final protein concentration of 0.5 μg/well. The plates were sealed and incubated at room temperature for 2 hours in a plate shaker set at 400 rpm. The incubation was stopped by vacuum filtration onto 0.5% poly-ethylene amine (PEI) presoaked GF/C filters using a 96-well FilterMate™ harvester (Perkin Elmer) followed by four washes with 300 μl/well ice-cold wash buffer (50 mM HEPES, 500 mM NaCl, pH7.4). Filter plates were then dried for 60 min at room temperature and the bottom of the plates was sealed with backing tape UniFilter-96. Finally, 50 μl/well scintillation counter cocktail (Microscint20, Packard) was added and the radioactivity was counted in the Packard TopCount NXT scintillation counter. IC50 values (the half maximal inhibitory concentration of the agonist) were calculated by nonlinear regression analysis of sigmoidal dose-response curves.

*1 amine or outer side, *2 acyl side, *3 side chain or, on linkers, in order; H or OH if unused. Where a SMILES comes first, the peptide text is derived from it. Side-chain parts run from the residue outwards. The star is where a group is joined. C18 diacid = O=C(O)CCCCCCCCCCCCCCCCC(=O)*; γGlu = O=C(O)[C@H](CCC(=O)[*:2])N[*:1]; Isovaleryl = CC(C)CC(=O)*; AEEA = NCCOCCOCC(=O)O

What is called Ki is the equilibrium dissociation constant of an inhibitor or competing ligand from its target. Turning to `CC(C)CC(=O)N[C@@H](C)C(=O)N1CCC[C@H]1C(=O)N[C@@H](CCC(=O)O)C(=O)N[C@@H](CCCCNC(=O)COCCOCCNC(=O)COCCOCCNC(=O)CC[C@H](NC(=O)CCCCCCCCCCCCCCCCC(=O)O)C(=O)O)C(=O)N1CCC[C@H]1C(=O)N[C@@H](CCC(=O)O)C(=O)N[C@@H](C)C(=O)N[C@@H](CC(=O)O)C(=O)N[C@@H](C)C(=O)N[C@@H](CO)C(=O)N1CCC[C@H]1C(=O)N[C@@H](CCC(=O)O)C(=O)N[C@@H](CCC(=O)O)C(=O)N[C@H](C(=O)N[C@@H](CCC(N)=O)C(=O)N[C@@H](CCCNC(=N)N)C(=O)N[C@@H](Cc1ccc(O)cc1)C(=O)N[C@@H](Cc1ccc(O)cc1)C(=O)N[C@H](C(=O)N[C@@H](CO)C(=O)N[C@@H](CC(C)C)C(=O)N[C@@H](CCCNC(=N)N)C(=O)N[C@@H](Cc1c[nH]cn1)C(=O)N[C@@H](Cc1ccc(O)cc1)C(=O)N[C@@H](Cc1ccc(O)cc1)C(=O)N[C@@H](CC(N)=O)C(=O)N[C@@H](Cc1c[nH]c2ccccc12)C(=O)N[C@@H](CC(C)C)C(=O)N[C@H](C(=O)N[C@@H](CCCNC(=N)N)C(=O)N[C@@H](CCC(N)=O)C(=O)N[C@@H](CCCNC(=N)N)C(=O)N[C@@H](Cc1ccc(O)cc1)C(N)=O)[C@@H](C)O)C(C)C)[C@@H](C)O` [Compound 10, N{alpha-4}-(3-methylbutanoyl)-N{epsilon-7}-[2-(2-{2-[2-(2-{2-[(4S)-4-carboxy-4-(17-carboxyheptadecanamido)butanamido]ethoxy}ethoxy)acetamido]ethoxy}ethoxy)acetamido]-[4A,7K,9E,10A,17T,18Q,22V,28Y,30W,31L]hPYY (4-36)], the inhibitory constant (Ki) amounted to 1.28 nM. Regarding `CC(C)CC(=O)N[C@@H](C)C(=O)N1CCC[C@H]1C(=O)N[C@@H](CCC(=O)O)C(=O)N[C@@H](CCCCNC(=O)COCCOCCNC(=O)COCCOCCNC(=O)CC[C@H](NC(=O)CCCCCCCCCCCCCCCCC(=O)O)C(=O)O)C(=O)N1CCC[C@H]1C(=O)N[C@@H](CCC(=O)O)C(=O)N[C@@H](CCC(=O)O)C(=O)N[C@@H](CC(=O)O)C(=O)N[C@@H](C)C(=O)N[C@@H](C)C(=O)N1CCC[C@H]1C(=O)N[C@@H](CCC(=O)O)C(=O)N[C@@H](CCC(=O)O)C(=O)N[C@@H](CC(C)C)C(=O)N[C@@H](CCC(N)=O)C(=O)N[C@@H](CCC(N)=O)C(=O)N[C@@H](Cc1ccc(O)cc1)C(=O)N[C@@H](Cc1ccc(O)cc1)C(=O)N[C@H](C(=O)N[C@@H](CO)C(=O)N[C@@H](CC(C)C)C(=O)N[C@@H](CCCNC(=N)N)C(=O)N[C@@H](Cc1c[nH]cn1)C(=O)N[C@@H](Cc1ccc(O)cc1)C(=O)N[C@@H](Cc1ccc(O)cc1)C(=O)N[C@@H](CC(N)=O)C(=O)N[C@@H](Cc1c[nH]c2ccccc12)C(=O)N[C@@H](CC(C)C)C(=O)N[C@H](C(=O)N[C@@H](CCCNC(=N)N)C(=O)N[C@@H](CCC(N)=O)C(=O)N[C@@H](CCCNC(=N)N)C(=O)N[C@@H](Cc1ccc(O)cc1)C(N)=O)[C@@H](C)O)C(C)C` [Compound 13, N{alpha-4}-(3-methylbutanoyl)-N{epsilon-7}-[2-(2-{2-[2-(2-{2-[(4S)-4-carboxy-4-(17-carboxyheptadecanamido)butanamido]ethoxy}ethoxy)acetamido]ethoxy}ethoxy)acetamido]-[4A,7K,9E,13A,18Q,19Q,22V,28Y,30W,31L]hPYY (4-36)], the Ki amounted to 1.29 nM. The result for `CC[C@H](C)[C@H](NC(=O)[C@H](CCC(=O)O)NC(=O)[C@H](CCC(=O)O)NC(=O)[C@@H]1CCCN1C(=O)[C@H](CO)NC(=O)[C@H](C)NC(=O)[C@H](CC(=O)O)NC(=O)[C@H](CCC(=O)O)NC(=O)[C@H](CCC(=O)O)NC(=O)[C@@H]1CCCN1C(=O)[C@H](CCCCNC(=O)COCCOCCNC(=O)COCCOCCNC(=O)CC[C@H](NC(=O)CCCCCCCCCCCCCCCCC(=O)O)C(=O)O)NC(=O)[C@H](CCC(=O)O)NC(=O)[C@@H]1CCCN1C(=O)[C@H](C)NC(=O)CC(C)C)C(=O)N[C@@H](CCC(N)=O)C(=O)N[C@@H](CCCNC(=N)N)C(=O)N[C@@H](Cc1ccc(O)cc1)C(=O)N[C@@H](CCC(=O)O)C(=O)N[C@H](C(=O)N[C@@H](CO)C(=O)N[C@@H](CC(C)C)C(=O)N[C@@H](CCCNC(=N)N)C(=O)N[C@@H](Cc1c[nH]cn1)C(=O)N[C@@H](Cc1ccc(O)cc1)C(=O)N[C@@H](Cc1ccc(O)cc1)C(=O)N[C@@H](CC(N)=O)C(=O)N[C@@H](Cc1c[nH]c2ccccc12)C(=O)N[C@@H](CC(C)C)C(=O)N[C@H](C(=O)N[C@@H](CCCNC(=N)N)C(=O)N[C@@H](CCC(N)=O)C(=O)N[C@@H](CCCNC(=N)N)C(=O)N[C@@H](Cc1ccc(O)cc1)C(N)=O)[C@@H](C)O)C(C)C` [Compound 15, N{alpha-4}-(3-methylbutanoyl)-N{epsilon-7}-[2-(2-{2-[2-(2-{2-[(4S)-4-carboxy-4-(17-carboxyheptadecanamido)butanamido]ethoxy}ethoxy)acetamido]ethoxy}ethoxy)acetamido]-[4A,7K,9E,17I,18Q,21E,22V,28Y,30W,31L]hPYY (4-36)] reads 2.89 nM.

With `CC(C)CC(=O)N[C@@H](C)C(=O)N1CCC[C@H]1C(=O)N[C@@H](CCC(=O)O)C(=O)N[C@@H](CCCCNC(=O)COCCOCCNC(=O)COCCOCCNC(=O)CC[C@H](NC(=O)CCCCCCCCCCCCCCCCC(=O)O)C(=O)O)C(=O)N1CCC[C@H]1C(=O)N[C@@H](CCC(=O)O)C(=O)N[C@@H](CCC(=O)O)C(=O)N[C@@H](CC(=O)O)C(=O)N[C@@H](C)C(=O)N[C@@H](CO)C(=O)N1CCC[C@H]1C(=O)N[C@@H](C)C(=O)N[C@@H](CCC(=O)O)C(=O)N[C@@H](CC(C)C)C(=O)N[C@@H](CCC(N)=O)C(=O)N[C@@H](CCCNC(=N)N)C(=O)N[C@@H](Cc1ccc(O)cc1)C(=O)N[C@@H](Cc1ccc(O)cc1)C(=O)N[C@H](C(=O)N[C@@H](CO)C(=O)N[C@@H](CC(C)C)C(=O)N[C@@H](CCCNC(=N)N)C(=O)N[C@@H](Cc1c[nH]cn1)C(=O)N[C@@H](Cc1ccc(O)cc1)C(=O)N[C@@H](Cc1ccc(O)cc1)C(=O)N[C@@H](CC(N)=O)C(=O)N[C@@H](Cc1c[nH]c2ccccc12)C(=O)N[C@@H](CC(C)C)C(=O)N[C@H](C(=O)N[C@@H](CCCNC(=N)N)C(=O)N[C@@H](CCC(N)=O)C(=O)N[C@@H](CCCNC(=N)N)C(=O)N[C@@H](Cc1ccc(O)cc1)C(N)=O)[C@@H](C)O)C(C)C` [Compound 17, N{alpha-4}-(3-methylbutanoyl)-N{epsilon-7}-[2-(2-{2-[2-(2-{2-[(4S)-4-carboxy-4-(17-carboxyheptadecanamido)butanamido]ethoxy}ethoxy)acetamido]ethoxy}ethoxy)acetamido]-[4A,7K,9E,15A,18Q,22V,28Y,30W,31L]hPYY (4-36)], the inhibition constant (Ki) was found to be 0.93 nM. The result for `CC(C)CC(=O)N[C@@H](C)C(=O)N1CCC[C@H]1C(=O)N[C@@H](CCC(=O)O)C(=O)N[C@@H](CCCCNC(=O)COCCOCCNC(=O)COCCOCCNC(=O)CC[C@H](NC(=O)CCCCCCCCCCCCCCCCC(=O)O)C(=O)O)C(=O)N1CCC[C@H]1C(=O)N[C@@H](CCC(=O)O)C(=O)N[C@@H](C)C(=O)N[C@@H](CC(=O)O)C(=O)N[C@@H](C)C(=O)N[C@@H](CO)C(=O)N1CCC[C@H]1C(=O)N[C@@H](CCC(=O)O)C(=O)N[C@@H](CCC(=O)O)C(=O)N[C@@H](CC(C)C)C(=O)N[C@@H](CCC(N)=O)C(=O)N[C@@H](CCC(N)=O)C(=O)N[C@@H](Cc1ccc(O)cc1)C(=O)N[C@@H](Cc1ccc(O)cc1)C(=O)N[C@H](C(=O)N[C@@H](CO)C(=O)N[C@@H](CC(C)C)C(=O)N[C@@H](CCCNC(=N)N)C(=O)N[C@@H](Cc1c[nH]cn1)C(=O)N[C@@H](Cc1ccc(O)cc1)C(=O)N[C@@H](Cc1ccc(O)cc1)C(=O)N[C@@H](CC(N)=O)C(=O)N[C@@H](Cc1c[nH]c2ccccc12)C(=O)N[C@@H](CC(C)C)C(=O)N[C@H](C(=O)N[C@@H](CCCNC(=N)N)C(=O)N[C@@H](CCC(N)=O)C(=O)N[C@@H](CCCNC(=N)N)C(=O)N[C@@H](Cc1ccc(O)cc1)C(N)=O)[C@@H](C)O)C(C)C` [Compound 19, N{alpha-4}-(3-methylbutanoyl)-N{epsilon-7}-[2-(2-{2-[2-(2-{2-[(4S)-4-carboxy-4-(17-carboxyheptadecanamido)butanamido]ethoxy}ethoxy)acetamido]ethoxy}ethoxy)acetamido]-[4A,7K,9E,10A,18Q,19Q,22V,28Y,30W,31L]hPYY (4-36)] (Isovaleryl-APEK([AEEA-AEEA-γGlu-C18 diacid])PEADASPEELQQYYVSLRHYYNWLTRQRY-NH2) reads 0.39 nM.
